*1 amine or outer side, *2 acyl side, *3 side chain or, on linkers, in order; H or OH if unused. Where a SMILES comes first, the peptide text is derived from it. Bridges are numbered along the chain shown (N, C = ends). Side-chain parts run from the residue outwards. [ ]: non-standard residue; d: D form. The star is where a group is joined. X2 = O=C(O)CN1CCN(CC(=O)O)CCN(CC(=O)N[C@@H](CCC(=O)NC[C@H](O)[C@@H](O)[C@H](O)[C@H](O)CO)C(=O)*)CCN(CC(=O)O)CC1; NH(1-deoxy-D-glucityl) = OC[C@@H](O)[C@@H](O)[C@H](O)[C@@H](O)CN*; DOTA = O=C(O)CN1CCN(CC(=O)O)CCN(CC(=O)*)CCN(CC(=O)O)CC1; Trp(5-Cl) = N[C@@H](Cc1c[nH]c2ccc(Cl)cc12)C(=O)O; Pyridine(2,6-diCH2) = c1cc(C[*:1])nc(C[*:2])c1; Pro(4R-NH2) = N[C@H]1CN[C@H](C(=O)O)C1; Glutaryl = O=C(CCCC(=O)[*:2])[*:1]; Hyp = O=C(O)[C@@H]1C[C@@H](O)CN1; X1 = O=C(CN1CCC(N[*:1])CC1)[*:2]; hSer = N[C@@H](CCO)C(=O)O; Api = NC1(C(=O)O)CCNCC1; AEEA = NCCOCCOCC(=O)O Some results are limits rather than exact numbers.

The test deals with T1, GIPR (CHO-K1-hGIPR cells) (Homo sapiens, UniProt P48546).
T1 construct: host or cells: CHO-K1
T1 sequence (P48546 22-466): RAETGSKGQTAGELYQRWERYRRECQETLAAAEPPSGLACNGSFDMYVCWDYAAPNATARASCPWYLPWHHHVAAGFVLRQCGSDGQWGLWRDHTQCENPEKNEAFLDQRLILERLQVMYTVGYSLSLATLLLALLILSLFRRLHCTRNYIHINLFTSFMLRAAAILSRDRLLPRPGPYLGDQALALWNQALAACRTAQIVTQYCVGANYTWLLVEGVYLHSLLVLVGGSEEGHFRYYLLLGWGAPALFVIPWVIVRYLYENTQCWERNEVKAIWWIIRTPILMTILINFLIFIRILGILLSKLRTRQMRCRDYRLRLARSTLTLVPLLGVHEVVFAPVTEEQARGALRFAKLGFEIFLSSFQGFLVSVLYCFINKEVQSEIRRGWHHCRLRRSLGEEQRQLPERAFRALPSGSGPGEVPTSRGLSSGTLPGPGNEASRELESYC
Description: FACS binding assay. Conditions: competition with 20 nM GIP-057, 4° C., 1 hour, read-out: pIC50 Category (converted). An outline of the steps:
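Median fluorescence in the APC channel, measured on washed CHO-K1 cells overexpressing human GIPR, was fitted by four-parameter logistic regression against peptide concentration to yield EC50 or IC50 values. Secondary labelling used APC-streptavidin (1 μg/mL, 30 min, ice).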
On the technique in general: Flow cytometry measures light scatter and fluorescence of single cells or particles in a stream.

Take `CC[C@H](C)[C@@H]1NC(=O)[C@H](CC(C)C)NC(=O)C2(CCN(C(=O)CN3CCN(CC(=O)O)CCN(CC(=O)O)CCN(CC(=O)O)CC3)CC2)NC(=O)[C@@H](NC(=O)[C@@H](CC(C)C)NC(=O)[C@H](CCC(=O)O)NC(=O)[C@@H]2C[C@@H](N)CN2C(=O)[C@H](Cc2c[nH]c3ccc(Cl)cc23)NC(=O)[C@H](Cc2c[nH]c3ccccc23)NC(=O)[C@H](CC(=O)O)NC(=O)CCCC(=O)NC[C@H](O)[C@@H](O)[C@H](O)[C@H](O)CO)CSCc2cccc(n2)CSC[C@H](C(=O)NC2CCN(CC(=O)N[C@H](CCC(=O)NC[C@H](O)[C@@H](O)[C@H](O)[C@H](O)CO)C(N)=O)CC2)NC1=O` [GIP-038, AGLU-Glutar-Asp-Trp-5Clw-Tap-Glu-leu-[Cys(2Lut)-Apc(DOTA)-Leu-Ile-cys]-APAc-glu(AGLU)-NH2] ({NH(1-deoxy-D-glucityl)-Glutaryl}-DW[Trp(5-Cl)][Pro(4R-NH2)]E[dL]C[Api](DOTA)LI[dC][X1][dE](NH(1-deoxy-D-glucityl))-NH2; linker 7-11 via Pyridine(2,6-diCH2)): the IC50 is less than 10 nM.

Consider `CC[C@H](C)[C@@H]1NC(=O)[C@H](CC(C)C)NC(=O)C2(CCN(C(=O)CN3CCN(CC(=O)O)CCN(CC(=O)O)CCN(CC(=O)O)CC3)CC2)NC(=O)[C@@H](NC(=O)[C@@H](CC(C)C)NC(=O)[C@H](CCC(=O)O)NC(=O)[C@@H]2C[C@@H](O)CN2C(=O)[C@H](Cc2c[nH]c3ccc(Cl)cc23)NC(=O)[C@H](Cc2c[nH]c3ccccc23)NC(=O)[C@H](CC(=O)O)NC(=O)CN2CCC(NC(=O)CCCC(=O)NC[C@H](O)[C@@H](O)[C@H](O)[C@H](O)CO)CC2)CSCc2cccc(n2)CSC[C@@H](C(=O)N[C@H](CCCCNC(=O)CCOCCOCCOCCOCCOCCOCCOCCOCCOCCOCCOCCOCCOCCOCCOCCOCCOCCOCCOCCOCCOCCOCCOCCOCCOCCOCCOCCOCCOCCOCCOCCOCCOCCOCCOCCOCCOC)C(N)=O)NC1=O` [GIP-039, AGLU-Glutar-APAc-Asp-Trp-5Clw-Hyp-Glu-leu-[Cys(2Lut)-Apc(DOTA)-Leu-Ile-Cys]-lys(MeO36PEG)-NH2], for which the IC50 was 10 to 79.4 nM.

Turning to `CCOCCOCCOCCOCCOCCOCCOCCOCCOCCOCCOCCOCCOCCOCCOCCOCCOCCOCCOCCOCCOCCOCCOCCOCCOCCOCCOCCOCCOCCOCCOCCOCCOCCOCCOCCOCCOCC(=O)NC1CCN(CC(=O)N[C@@H](CC(=O)O)C(=O)N[C@@H](Cc2c[nH]c3ccccc23)C(=O)N[C@@H](Cc2c[nH]c3ccc(Cl)cc23)C(=O)N2C[C@H](O)C[C@H]2C(=O)N[C@@H](CCC(=O)O)C(=O)N[C@H](CC(C)C)C(=O)N[C@H]2CSCc3cccc(n3)CSC[C@@H](C(=O)NC3CCN(CC(=O)N[C@H](CCC(=O)NC[C@H](O)[C@@H](O)[C@H](O)[C@H](O)CO)C(N)=O)CC3)NC(=O)[C@H]([C@@H](C)CC)NC(=O)[C@H](CC(C)C)NC(=O)C3(CCN(C(=O)CN4CCN(CC(=O)O)CCN(CC(=O)O)CCN(CC(=O)O)CC4)CC3)NC2=O)CC1` [GIP-041, MeO36PEG-APAc-Asp-Trp-5Clw-Hyp-Glu-leu-[Cys(2Lut)-Apc(DOTA)-Leu-Ile-Cys]-APAc-glu(AGLU)-NH2], the IC50 was 10 to 79.4 nM.

For the compound `CCOCCOCCOCCOCCOCCOCCOCCOCCOCCOCCOCCOCCOCCOCCOCCOCCOCCOCCOCCOCCOCCOCCOCCOCCOCCOCCOCCOCCOCCOCCOCCOCCOCCOCCOCCOCCOCC(=O)NC1CCN(CC(=O)N[C@@H](CC(=O)O)C(=O)N[C@@H](Cc2c[nH]c3ccccc23)C(=O)N[C@@H](Cc2c[nH]c3ccc(Cl)cc23)C(=O)N2C[C@H](N)C[C@H]2C(=O)N[C@@H](CCC(=O)O)C(=O)N[C@H](CC(C)C)C(=O)N[C@H]2CSCc3cccc(n3)CSC[C@@H](C(=O)NC3CCN(CC(=O)N[C@H](CCC(=O)NC[C@H](O)[C@@H](O)[C@H](O)[C@H](O)CO)C(N)=O)CC3)NC(=O)[C@H]([C@@H](C)CC)NC(=O)[C@H](CC(C)C)NC(=O)C3(CCN(C(=O)CN4CCN(CC(=O)O)CCN(CC(=O)O)CCN(CC(=O)O)CC4)CC3)NC2=O)CC1` [GIP-042, MeO36PEG-APAc-Asp-Trp-5Clw-Tap-Glu-leu-[Cys(2Lut)-Apc(DOTA)-Leu-Ile-Cys]-APAc-glu(AGLU)-NH2], the IC50 is 10 to 79.4 nM.

On to `CC[C@H](C)[C@@H]1NC(=O)[C@H](CC(C)C)NC(=O)C2(CCN(C(=O)[C@H](CCC(=O)NC[C@H](O)[C@@H](O)[C@H](O)[C@H](O)CO)NC(=O)CN3CCN(CC(=O)O)CCN(CC(=O)O)CCN(CC(=O)O)CC3)CC2)NC(=O)[C@@H](NC(=O)[C@@H](CC(C)C)NC(=O)[C@H](CCC(=O)O)NC(=O)[C@@H]2C[C@@H](O)CN2C(=O)[C@H](Cc2c[nH]c3ccc(Cl)cc23)NC(=O)[C@H](Cc2c[nH]c3ccccc23)NC(=O)[C@H](CC(=O)O)NC(=O)CN2CCC(NC(=O)CCCC(=O)NC[C@H](O)[C@@H](O)[C@H](O)[C@H](O)CO)CC2)CSCc2cccc(n2)CSC[C@@H](C(=O)NC2CCN(CC(=O)N[C@H](CCC(=O)NC[C@H](O)[C@@H](O)[C@H](O)[C@H](O)CO)C(N)=O)CC2)NC1=O` [GIP-043, AGLU-Glutar-APAc-Asp-Trp-5Clw-Hyp-Glu-leu-[Cys(2Lut)-Apc(DOTA-glu(AGLU))-Leu-Ile-Cys]-APAc-glu(AGLU)-NH2] ({NH(1-deoxy-D-glucityl)-Glutaryl}-[X1]DW[Trp(5-Cl)][Hyp]E[dL]C[Api](X2)LIC[X1][dE](NH(1-deoxy-D-glucityl))-NH2; linker 8-12 via Pyridine(2,6-diCH2)), for which the IC50 was less than 10 nM.

`CC[C@H](C)[C@@H]1NC(=O)[C@H](CC(C)C)NC(=O)C2(CCN(C(=O)CCCC(=O)NC[C@H](O)[C@@H](O)[C@H](O)[C@H](O)CO)CC2)NC(=O)[C@@H](NC(=O)[C@@H](CC(C)C)NC(=O)[C@H](CCC(=O)O)NC(=O)[C@@H]2C[C@@H](N)CN2C(=O)[C@H](Cc2c[nH]c3ccc(Cl)cc23)NC(=O)[C@H](Cc2c[nH]c3ccccc23)NC(=O)[C@H](CC(=O)O)NC(=O)[C@@H](CCC(=O)NC[C@H](O)[C@@H](O)[C@H](O)[C@H](O)CO)NC(=O)COCCOCCNC(=O)CN2CCN(CC(=O)O)CCN(CC(=O)O)CCN(CC(=O)O)CC2)CSCc2cccc(n2)CSC[C@@H](C(=O)NC2CCN(CC(=O)N[C@H](CCC(=O)NC[C@H](O)[C@@H](O)[C@H](O)[C@H](O)CO)C(N)=O)CC2)NC1=O` [GIP-044, DOTA-02Oc-glu(AGLU)-Asp-Trp-5Clw-Tap-Glu-leu-[Cys(2Lut)-Apc(AGLU-Glutar)-Leu-Ile-Cys]-APAc-glu(AGLU)-NH2] ({DOTA-AEEA}-[dE](NH(1-deoxy-D-glucityl))DW[Trp(5-Cl)][Pro(4R-NH2)]E[dL]C[Api]([Glutaryl-NH(1-deoxy-D-glucityl)])LIC[X1][dE](NH(1-deoxy-D-glucityl))-NH2; linker 8-12 via Pyridine(2,6-diCH2)): the IC50 was less than 10 nM.

In the case of `CC[C@H](C)[C@@H]1NC(=O)[C@H](CC(C)C)NC(=O)C2(CCN(C(=O)CCCC(=O)NC[C@H](O)[C@@H](O)[C@H](O)[C@H](O)CO)CC2)NC(=O)[C@@H](NC(=O)[C@@H](CC(C)C)NC(=O)[C@H](CCC(=O)O)NC(=O)[C@@H]2C[C@@H](N)CN2C(=O)[C@H](Cc2c[nH]c3ccc(Cl)cc23)NC(=O)[C@H](Cc2c[nH]c3ccccc23)NC(=O)[C@H](CC(=O)O)NC(=O)[C@@H](CCC(=O)NC[C@H](O)[C@@H](O)[C@H](O)[C@H](O)CO)NC(=O)CN2CCN(CC(=O)O)CCN(CC(=O)O)CCN(CC(=O)O)CC2)CSCc2cccc(n2)CSC[C@@H](C(=O)NC2CCN(CC(=O)N[C@H](CCC(=O)NC[C@H](O)[C@@H](O)[C@H](O)[C@H](O)CO)C(N)=O)CC2)NC1=O` [GIP-045, DOTA-glu(AGLU)-Asp-Trp-5Clw-Tap-Glu-leu-[Cys(2Lut)-Apc(AGLU-Glutar)-Leu-Ile-Cys]-APAc-glu(AGLU)-NH2] ({DOTA}-[dE](NH(1-deoxy-D-glucityl))DW[Trp(5-Cl)][Pro(4R-NH2)]E[dL]C[Api]([Glutaryl-NH(1-deoxy-D-glucityl)])LIC[X1][dE](NH(1-deoxy-D-glucityl))-NH2; linker 8-12 via Pyridine(2,6-diCH2)), the IC50 was less than 10 nM.

For the compound `CC[C@H](C)[C@@H]1NC(=O)[C@H](CC(C)C)NC(=O)C2(CCN(C(=O)[C@H](CCC(=O)NC[C@H](O)[C@@H](O)[C@H](O)[C@H](O)CO)NC(=O)CN3CCN(CC(=O)O)CCN(CC(=O)O)CCN(CC(=O)O)CC3)CC2)NC(=O)[C@@H](NC(=O)[C@@H](CC(C)C)NC(=O)[C@H](CCC(=O)O)NC(=O)[C@@H]2C[C@@H](O)CN2C(=O)[C@H](Cc2c[nH]c3ccc(Cl)cc23)NC(=O)[C@H](Cc2c[nH]c3ccccc23)NC(=O)[C@H](CCO)NC(=O)CN2CCC(NC(=O)CCCC(=O)NC[C@H](O)[C@@H](O)[C@H](O)[C@H](O)CO)CC2)CSCc2cccc(n2)CSC[C@@H](C(=O)NC2CCN(CC(=O)N[C@H](CCC(=O)NC[C@H](O)[C@@H](O)[C@H](O)[C@H](O)CO)C(N)=O)CC2)NC1=O` [GIP-047, AGLU-Glutar-APAc-Hse-Trp-5Clw-Hyp-Glu-leu-[Cys(2Lut)-Apc(DOTA-glu(AGLU))-Leu-Ile-Cys]-APAc-glu(AGLU)-NH2] ({NH(1-deoxy-D-glucityl)-Glutaryl}-[X1][hSer]W[Trp(5-Cl)][Hyp]E[dL]C[Api](X2)LIC[X1][dE](NH(1-deoxy-D-glucityl))-NH2; linker 8-12 via Pyridine(2,6-diCH2)), the IC50 was 10 to 79.4 nM.

Values taken from patent publication US20250296971A1, “GASTRIC INHIBITORY PEPTIDE RECEPTOR LIGANDS” (priority 2021, published 2025).
